Measured values reported in patent US6656942B2, “Orally active salts with tyrosine kinase activity” (Merck & Co., Inc., priority 2000, dated 2003).
Counter-ions that a name gives are not always drawn.

Tests used:
Assay type in all cases: physicochemical
[1] = Measurement of salt solubility: free base 1-11 treated with acid, suspended in water, HPLC; settings: for pH: pH in equilibrium with the solid phase, most likely lower than pH of the salt in water; for solubility: salt made in situ with 1.05-1.1 molar equivalence of acid, suspended in water several days, method overestimates the solubility
Method: The pH and concentration of the compound in equilibrium with the solid phase was measured by HPLC (UV-Vis detection).

[2] = Solubility and pH of salts of 4-9 prepared in situ; settings: for solubility: 1.05 mole equivalents of acid, 100 μL of water, spun overnight, HPLC; for pH: pH of the liquid residue of the sample
Method: Two forms of the mesylate salt were made: Salt 4-9A above and Salt 4-9B below. Numerous salts of 4-9 were prepared in situ and analyzed using the procedure outlined below,
3) The reagents were mixed with a Vortex mixer and left to stand at room temperature or warmed if needed to dissolve the solid.
4) 100 μL of water were added to suspend the solid.
5) Tube was then covered with aluminum foil and spun overnight on a rotator.
6) The tube was then spun in a centrifuge for 10 minutes at 10,000 RPM.
7) An aliquot was removed from the sample and dried with nitrogen overnight to produce the solid residue (salt) which was analyzed via microscopy and DCS.
8) The liquid residue from the remaining sample was used to measure pH and determine the concentration of salt by HPLC.

[3] = Aqueous solubility at room temperature, quantitated by HPLC; settings: for solubility / aqueous solubility at room temperature: water, room temperature, HPLC; for solubility: thermodynamic from solid; for crystallization out of the concentrated aqueous solution: time scale of the experiment (24 hours)
Method: The free base 2-1 is a yellow powder. […] The crystals appear plate-like with most of the particles below 10 microns. […] The aqueous solubility was measured using HPLC to quantitate the compound in suspension.
The mesylate salt 2-1A is a yellow powder. […] A broad non-reversible endotherm centered around 87° C. is attributed to loss of solvent/moisture. The aqueous solubility was measured using HPLC to quantitate the compound.
The HCl salt 2-1B was also a yellow powder. […] This indicates the presence of both amorphous and crystalline material. […] The aqueous solubility was measured using HPLC to quantitate the compound.
The free base is a yellow powder which contains particles that are birefringent under polarized light indicating the presence of crystalline material. […] The aqueous solubility was measured using HPLC to quantitate the compound in an aqueous suspension.
The HCl salt is also a yellow solid, which contains particles that are birefringent under polarized light indicating the presence of crystalline material. […] The aqueous solubility was measured using HPLC to quantitate the compound in suspension.
The yellow, mesylate salt was examined under polarized light by optical microscopy. […] It is possible that the small amount of crystalline solid went undetected by optical microscopy. The aqueous solubility was measured using HPLC to quantitate the compound in suspension.
This mesylate salt 4-9A, which is a yellow powder, was examined under polarized light by optical microscopy. The crystals appear birefringent under polarized light indicating crystallinity. The crystals appear plate-like with few agglomerates. […] The aqueous solubility was measured using HPLC to quantitate the compound in suspension.

[4] = Solubility of free base 1-11 at room temperature in 0.05M aqueous buffers, water, organic solvents and HPβCD
Method: The solubility of 1-11 at room temperature was determined in 0.05M aqueous buffers, water and several organic solvents.

[5] = Solubility of crystalline mesylate salts 1-11A and 1-11B
Method: The amorphous mesylate salt was recrystallized from 50:50 Ethanol:THF to give a crystalline powder (Salt 1-11A). The X-ray powder diffraction pattern (XRPD) of the recrystallized mesylate salt 1-11A (FIG. 2) is indicative of crystalline material with multiple diffraction peaks between 5° and 30° 2-theta.
A second batch of crystalline mesylate salt (Salt 1-11B) was obtained by the following procdeure. To a stirred suspension of 1-11 (4.026 g, 9.22 mmol) in MeOH was slowly added at room temperature (RT) one equivalent of a 0.3M solution of methanesulfonic acid (30.73 mL). After all the solid had dissolved, the mixture was filtered into a flask and concentrated under reduced pressure while cooled to about 10° C. The resulting solid was suspended with 200 mL of ethylacetate, filtered, and dried to afford the mesylate salt. […] This crystalline form is different by XRPD than the one recrystallized from the amorphous salt in EtOH/THF (Salt 1-11A).

## CS(=O)(=O)N1CCN(Cc2ccc3[nH]c(-c4cc5ccccc5[nH]c4=O)cc3c2)CC1 [Mesylate salt of 1-11]
[1]
  pH: 2.3
  solubility: 580 µg/mL

## CS(=O)(=O)N1CCN(Cc2ccc3[nH]c(-c4cc5ccccc5[nH]c4=O)cc3c2)CC1 [Sulfate salt of 1-11]
[1]
  pH: 1.5
  solubility: 130 µg/mL

## COCCN(C)CCOc1ccc2[nH]c(-c3cc4ccccc4[nH]c3=O)cc2c1 [Mesylate 4-9B]
[2]
  solubility: 22000 µg/mL
  pH: 5.08

## COCCN(C)CCOc1ccc2[nH]c(-c3cc4ccccc4[nH]c3=O)cc2c1 [4-9 Free Base, 3-(5-{2-[(2-methoxyethyl)(methyl)amino]ethoxy}-1H-indol-2-yl)-2(1H)-quinolinone]
[2]; pH 6.75, thermodynamic from solid, read-out: Solubility
  solubility: 75 µg/mL
[2]
  pH: 6.75

## COCCN(C)CCOc1ccc2[nH]c(-c3cc4ccccc4[nH]c3=O)cc2c1.CS(=O)(=O)O [Salt 4-9A, 2-methoxy-N-methyl-N-(2-{[2-(2-oxo-1,2-dihydroquinolin-3-yl)-1H-indol-5-yl]oxy}ethyl)ethanaminium methanesulfonate]
[3]
  solubility: 1500 µg/mL

## CS(=O)(=O)N1CCN(Cc2ccc3[nH]c(-c4cc5ccccc5[nH]c4=O)cc3c2)CC1 [Acetate salt of 1-11]
[1]
  pH: 3.3
  solubility: 91 µg/mL

## CS(=O)(=O)N1CCN(Cc2ccc3[nH]c(-c4cc5ccccc5[nH]c4=O)cc3c2)CC1 [HBr salt of 1-11]
[1]
  pH: 2.9
  solubility: 200 µg/mL

## CN1CCN(Cc2ccc3[nH]c(-c4cc5ccccc5[nH]c4=O)cc3c2)CCC1=O.Cl [Salt 2-1B, 4-Methyl-5-oxo-1-[2-(2-oxo-1,2-dihydro-quinolin-3-yl)-1H-indol-5-ylmethyl]-[1,4]diazepan-1-ium; methanesulfonate; chloride]
[3]
  crystallization out of the concentrated aqueous solution: did not crystallize out
  solubility: > 10200 µg/mL

## COCCN(C)CCOc1ccc2[nH]c(-c3cc4ccccc4[nH]c3=O)cc2c1 [HCl salt of 4-9]
[2]
  solubility: 22400 µg/mL
  pH: 2.34

## O=C(CO)N1CCN(Cc2ccc3[nH]c(-c4cc5ccccc5[nH]c4=O)cc3c2)CC1 [Salt 3-10, 3-{5-[4-(2-Hydroxy-ethanoyl)-piperazin-1-ylmethyl]-1H-indol-2-yl}-1H-quinolin-2-one]
[3]
  aqueous solubility at room temperature: 63.5 µg/mL

## CS(=O)(=O)N1CCN(Cc2ccc3[nH]c(-c4cc5ccccc5[nH]c4=O)cc3c2)CC1 [Besylate salt of 1-11]
[1]
  pH: 2.4
  solubility: 3.8 µg/mL

## CN1CCN(Cc2ccc3[nH]c(-c4cc5ccccc5[nH]c4=O)cc3c2)CCC1=O [Salt 2-1, 3-[5-(4-Methyl-5-oxo-[1,4]diazepan-1-ylmethyl)-1H-indol-2-yl]-1H-quinolin-2-one]
[3]
  aqueous solubility at room temperature: 28 µg/mL

## COCCN(C)CCOc1ccc2[nH]c(-c3cc4ccccc4[nH]c3=O)cc2c1 [Sulfate salt of 4-9]
[2]
  solubility: 4350 µg/mL
  pH: 1.40

## CS(=O)(=O)N1CCN(Cc2ccc3[nH]c(-c4cc5ccccc5[nH]c4=O)cc3c2)CC1 [HCl salt of 1-11]
[1]
  pH: 2.3
  solubility: 430 µg/mL

## CS(=O)(=O)N1CCN(Cc2ccc3[nH]c(-c4cc5ccccc5[nH]c4=O)cc3c2)CC1 [Salt 1-11, 3-[5-(4-Methanesulfonyl-piperazin-1-ylmethyl)-1H-indol-2-yl]-1H-quinolin-2-one]
[4]; 0.05 M carbonate buffer, pH 10.09, aqueous buffer, 0.05 M Carbonate, pHfinal 10.09, room temperature
  solubility: 79 µg/mL
[4]; 0.05 M carbonate buffer, pH 11.15, aqueous buffer, 0.05 M Carbonate, pHfinal 11.15, room temperature
  solubility: 77 µg/mL
[4]; 0.05 M citrate buffer, pH 3.23, aqueous buffer, 0.05 M Citrate, pHfinal 3.23, room temperature
  solubility: 92 µg/mL
[4]; 0.05 M citrate buffer, pH 4.15, aqueous buffer, 0.05 M Citrate, pHfinal 4.15, room temperature
  solubility: 73 µg/mL
[4]; 0.05 M citrate buffer, pH 5.07, aqueous buffer, 0.05 M Citrate, pHfinal 5.07, room temperature
  solubility: 70 µg/mL
[4]; 0.05 M citrate buffer, pH 6.01, aqueous buffer, 0.05 M Citrate, pHfinal 6.01, room temperature
  solubility: 71 µg/mL
[4]; 0.05 M phosphate buffer, pH 6.96, aqueous buffer, 0.05 M Phosphate, pHfinal 6.96, room temperature
  solubility: 71 µg/mL
[4]; 0.05 M phosphate buffer, pH 7.93, aqueous buffer, 0.05 M Phosphate, pHfinal 7.93, room temperature
  solubility: 74 µg/mL
[4]; 0.05 M phosphate buffer, pH 8.86, aqueous buffer, 0.05 M Phosphate, pHfinal 8.86, room temperature
  solubility: 73 µg/mL
[4]; 25% HPβCD in water, aqueous with cosolvent or surfactant or cyclodextrin, 25% HPβCD, native pH in water (pH = 7.5)
  solubility: 168 µg/mL
[4]; 50% aqueous Can (probably ACN, acetonitrile), aqueous with cosolvent or surfactant or cyclodextrin, 50% Aqueous Can, room temperature
  solubility: 60 µg/mL
[4]; Water, room temperature
  solubility: 0.03 µg/mL
[4]; organic solvent or mixture, Acetonitrile, room temperature
  solubility: 84 µg/mL
[4]; organic solvent or mixture, Ethanol, room temperature
  solubility: 19 µg/mL
[4]; organic solvent or mixture, Isopropanol, room temperature
  solubility: 6.5 µg/mL
[4]; pH 2.45, simulated gastric fluid, 0.01 N HCl, pHfinal 2.45, room temperature
  solubility: 400 µg/mL
[4]; pH 3, aqueous with cosolvent or surfactant or cyclodextrin, 10% HPβCD, pH adjusted to ca. 3.0 with HCl
  solubility: 1740 µg/mL
[4]; pH 3, aqueous with cosolvent or surfactant or cyclodextrin, 15% HPβCD, pH adjusted to ca. 3.0 with HCl
  solubility: 2350 µg/mL
[4]; pH 3, aqueous with cosolvent or surfactant or cyclodextrin, 20% HPβCD, pH adjusted to ca. 3.0 with HCl
  solubility: 3570 µg/mL
[4]; pH 3, aqueous with cosolvent or surfactant or cyclodextrin, 25% HPβCD, pH adjusted to ca. 3.0 with HCl
  solubility: 4560 µg/mL

## O=C(CO)N1CCN(Cc2ccc3[nH]c(-c4cc5ccccc5[nH]c4=O)cc3c2)CC1 [Salt 3-10B, 4-(2-Hydroxy-ethanoyl)-1-[2-(2-oxo-1,2-dihydro-quinolin-3-yl)-1H-indol-5-ylmethyl]-piperazin-1-ium; methanesulfonate]
[3]; methanesulfonate
  aqueous solubility at room temperature: 2430 µg/mL

## CS(=O)(=O)N1CCN(Cc2ccc3[nH]c(-c4cc5ccccc5[nH]c4=O)cc3c2)CC1 [Salt 1-11B]
[5]; Acetonitrile
  solubility: 30 µg/mL
[5]; Isopropanol
  solubility: 3 µg/mL
[5]; Water
  solubility: 90 µg/mL

## O=C(CO)N1CCN(Cc2ccc3[nH]c(-c4cc5ccccc5[nH]c4=O)cc3c2)CC1 [Salt 3-10A, 4-(2-Hydroxy-ethanoyl) 1-[2-(2-oxo-1,2-dihydro-quinolin-3-yl)-1H-indol-5-ylmethyl]-piperazin-1H-ium; chloride]
[3]
  aqueous solubility at room temperature: 1310 µg/mL

## CN1CCN(Cc2ccc3[nH]c(-c4cc5ccccc5[nH]c4=O)cc3c2)CCC1=O [Salt 2-1A, 4-Methyl-5-oxo-1-[2-(2-oxo-1.2-dihydro-quinolin-3-yl)-1H-indol-5-ylmethyl]-[1,4]diazepan-1-ium; methanesulfonate; methanesulfonate]
[3]
  crystallization out of the concentrated aqueous solution: no crystallization was observed
  aqueous solubility at room temperature: greater than 9.89 mg/mL

## CS(=O)(=O)N1CCN(Cc2ccc3[nH]c(-c4cc5ccccc5[nH]c4=O)cc3c2)CC1 [Salt 1-11A]
[5]; Acetonitrile
  solubility: 63 µg/mL
[5]; Isopropanol
  solubility: 20 µg/mL
[5]; Water
  solubility: 173 µg/mL

## CS(=O)(=O)N1CCN(Cc2ccc3[nH]c(-c4cc5ccccc5[nH]c4=O)cc3c2)CC1 [Maleate salt of 1-11]
[1]
  pH: 2.5
  solubility: 160 µg/mL
